We go through 13 compounds from patent US20180228780A1, “3-(1H-PYRROLO[2,3-C]PYRIDIN-2-YL)-1H-INDAZOLES AND THERAPEUTIC USES THEREOF” (Samumed, LLC, priority 2015, published 2018).

Holding throughout (assay type): cell-based
The subject of assay [1] is Primary human fibroblasts derived from IPF patients (LL29 cells). The assay is described as follows: Inhibition of the fibrotic process: αSMA staining in TGF-β1-treated LL29 fibroblasts. Conditions: Fibroblast; for EC50: 96 h, LL29 cells, TGF-β1 20 ng/mL, 4 days, % αSMA-positive cells; for inhibition at 10 µM: read-out: percent inhibition at 10 μM. From the text: Representative compounds were screened using primary human fibroblasts (derived from IFF patients) treated with TGF-β1 to determine their ability to inhibit the fibrotic process.
K. L., et.al., “RhoA signaling modulates cyclin D1 expression in human lung fibroblasts; implications for idiopathic pulmonary fibrosis”, Respiratory Research (2006), 7(1), 88] were obtained from American Type Culture Collection (ATCC) and expanded in F12 medium supplemented with 15% Fetal Bovine Serum and Penicillin/Streptomycin.
LL29 cells are plated at 1,500 cells/well in 80 μL/well F12 medium supplemented with 1% Fetal Bovine Serum. […] Wells treated with TGF-β1 and containing DMSO were used as controls. […] Following incubation for 4 days, SYTOX green nucleic acid stain (Life Technologies [Thermo Fisher Scientific]) was added to the wells at a final concentration of 1 μM and incubated at room temperature for 30 min.

The subject of assay [2] is Wnt activity (Sp5-Luc reporter, SW480 colon carcinoma cells). In words: Screening assay for Wnt activity: Sp5-Luc reporter gene assay in SW480 cells. Conditions: Homo sapiens; SW480 Sp5-Luc reporter, overnight incubation. From the text: The screening assay for Wnt activity is described as follows. Reporter cell lines can be generated by stably transducing cancer cell lines (e.g., colon cancer) or primary cells (e.g., IEC-6 intestinal cells) with a lentiviral construct that includes a Wnt-responsive promoter driving expression of the firefly luciferase gene.
SW480 colon carcinoma cells were transduced with a lentiviral vector expressing luciferase with a human Sp5 promoter consisting of a sequence of eight TCF/LEF binding sites. SW480 cells stably expressing the Sp5-Luc reporter gene and a hygromycin resistance gene were selected by treatment with 150 μg/mL of hygromycin for 7 days. These stably transduced SW480 cells were expanded in cell culture and used for all further screening activities. […] For Sp5-Luc reporter gene assays, the cells were plated at 4,000 cells/well in 384-well plates with medium containing 1% fetal bovine serum and incubated overnight at 37° C. and 5% CO2. Following incubation, 20 μl of BrightGlo luminescence reagent (Promega) was added to each well of the 384-well assay plates. The plates were placed on an orbital shaker for 2 min and then luminescence was quantified using the Envision (Perkin Elmer) plate reader. Readings were normalized to DMSO only treated cells, and normalized activities were utilized for EC50 calculations using the dose-response log (inhibitor) vs. response-variable slope (four parameters) nonlinear regression feature available in GraphPad Prism 5.0 (or Dotmatics).

Assay [3] relates to primary human mesenchymal stem cells (hMSCs). The assay is described as follows: Induction of chondrogenesis in hMSCs (nodule imaging, Rhodamine B / Nile Red). Particulars: 6 days; for Emax: relative to TGF-β3 (10 ng/mL) positive control, read-out: Max. Activity as % TGF-β3 activity; for EC50: concentration required to induce 50% levels of chondrogenesis vs TGF-β3, read-out: Conc (nM) of 50% TGF-β3 activity. An excerpt:
Representative compounds were screened using primary human mesenchymal stem cells (hMSCs) to determine their ability to induce chondrogenesis (process by which cartilage is developed).
Primary human mesenchymal stem cells (hMSCs) were purchased from Lonza (Walkersville, Md.) and expanded in Mesenchymal Stem Cell Growth Media (Lonza). Cells between passage 3 and 6 were used for the experiments.
Area of nodules in each well was normalized to the average of 3 DMSO treated wells on the same plate using Excel (Microsoft Inc.). The normalized averages (fold change over DMSO) of 2 or 3 replicate wells for each compound concentration were calculated. Due to solubility limitations of some of the compounds, curve fitting was incomplete leading to inaccurate EC50 determinations.
Using TGF-β3 as a positive control, the concentration of representative compounds required to induce 50% levels of chondrogenesis is reported. In addition, the maximum activity of each compound and the respective dose that each compound reached maximum chondrogenesis activity is reported.

The subject of a further assay is SW480 colon cancer cells. The assay is described as follows: Cell viability assay (CellTiter-Blue) in SW480 colon cancer cells. Particulars: Homo sapiens; for EC50: 96 h, SW480 cell viability, four days incubation. On the procedure:
Representative compounds were screened using the following assay procedure to assess the effect on cell viability as described below.
Approximately 2×10^3 SW480 colon cancer cells were seeded into each well and allowed to incubate in the presence or absence of compound for four days at 37° C./5% CO2. Eight replicates of DMSO-treated cells served as controls and cells treated with compound were performed in duplicate.
After incubation, 20 μL of CellTiter-Blue (Promega) was added to each well allowed to incubate for approximately 3 hours. This reagent was a buffered solution which contains resazurin, metabolically active cells were able to reduce rezarurin (blue) into resorufin (pink) which was highly fluorescent. This measured fluorescence was used as a readout for cell viability.

For a further assay, the system named is IL-6 (THP-1 cells). In words: IL-6 inhibition in THP-1 monocytes (HTRF). Particulars: Homo sapiens; for EC50: IL-6 inhibition, THP-1 cells, HTRF, 10-point dose-response starting from 10 μM; for inhibition at 10 µM: THP-1, read-out: percentage in parentheses printed under EC50 >10. How it is done: Compound Screening: THP-1 cells were cultured in basal media with 1% FBS for 24 hours before the start of the assay. […] THP-1 cells were plated at 5000 cells/well in the 384-well plates and incubated at 37° C. for 2 h. 500 ng/mL of […] was added after 2 hours and cells were incubated for another 22 hours at 37° C. Plates were spun in a centrifuge for 1 minute at 10,000 rpm and a mixture of anti-IL6 XL665, and anti-IL6 Cryptate diluted in reconstitution buffer (Cisbio Inc.) was added to each well. Following incubation for 3 hrs at room temperature, Homogeneous Time-Resolved Fluorescence (HTRF) was measured using the Envision (Perkin Elmer) at 665 nm and […]. The ratio of fluorescence at 665 nm to 620 nm was used as a readout for IL6 quantification. All samples were processed in duplicate. Readings were normalized to DMSO treated cells and normalized activities were utilized for EC50 calculations using the dose-response log (inhibitor) vs. response-variable slope (four parameters) nonlinear regression feature available in GraphPad Prism 5.0 (or Dotmatics).
In general terms: TR-FRET usually uses a lanthanide donor and a delayed reading to cut background.

For `CCC(=O)Nc1cncc(-c2ccc3[nH]nc(-c4cc5c(-c6cccc(F)c6)cncc5[nH]4)c3c2)c1` [Compound 1], the EC50 was 62 nM in assay [1], 45 nM in assay [2], 94 nM in the assay with SW480 colon cancer cells and 45 nM with IL-6 (THP-1 cells). Further, in assay [3], the Emax is 34%.

Turning to `CN(C)Cc1cncc(-c2ccc3[nH]nc(-c4cc5c(-c6cccc(F)c6)cncc5[nH]4)c3c2)c1` [Compound 13, 1-(5-(3-(4-(3-Fluorophenyl)-1H-pyrrolo[2,3-c]pyridin-2-yl)-1H-indazol-5-yl)pyridin-3-yl)-N,N-dimethylmethanamine], the EC50 in assay [1] was 952 nM; in assay [2] it was 1280 nM; in assay [3], 10 nM; in the assay with SW480 colon cancer cells, 420 nM; in the assay on IL-6 (THP-1 cells), 75 nM. For the same compound, in assay [3], the Emax turned out to be 193%.

With `O=C(Nc1cncc(-c2ccc3[nH]nc(-c4cc5c(-c6cccc(F)c6)cncc5[nH]4)c3c2)c1)C1CC1` [Compound 20, N-(5-(3-(4-(3-Fluorophenyl)-1H-pyrrolo[2,3-c]pyridin-2-yl)-1H-indazol-5-yl)pyridin-3-yl)cyclopropanecarboxamide], the EC50 is 122 nM in assay [1]; 45 nM in assay [2]; 900 nM in assay [3]; 67 nM in the assay with SW480 colon cancer cells; 17 nM in the assay with IL-6 (THP-1 cells). The Emax in assay [3] came to 94%.

Turning to `Fc1cccc(-c2cncc3[nH]c(-c4n[nH]c5ccc(-c6cncc(CN7CCC(F)(F)C7)c6)cc45)cc23)c1` [Compound 26, 5-(5-((3,3-Difluoropyrrolidin-1-yl)methyl)pyridin-3-yl)-3-(4-(3-fluorophenyl)-1H-pyrrolo[2,3-c]pyridin-2-yl)-1H-indazole], the EC50 in assay [1] is 322 nM; in assay [2] it was 160 nM; in assay [3], 2700 nM; in the assay on SW480 colon cancer cells, 734 nM; in the assay with IL-6 (THP-1 cells) it was 74 nM. In assay [3], the Emax came out at 87%.

`CCCCC(=O)Nc1cncc(-c2ccc3[nH]nc(-c4cc5c(-c6cc(F)cc(CNS(C)(=O)=O)c6)cncc5[nH]4)c3c2)c1` [Compound 495, N-(5-(3-(4-(3-Fluoro-5-(methylsulfonamidomethyl)phenyl)-1H-pyrrolo[2,3-c]pyridin-2-yl)-1H-indazol-5-yl)pyridin-3-yl)pentanamide]: the EC50 was over 10000 nM in assay [1], 1730 nM in assay [2], 3440 nM in the assay with SW480 colon cancer cells and 397 nM in the assay with IL-6 (THP-1 cells). The inhibition at 10 µM in assay [1] worked out at 3.3%.

Regarding `CS(=O)(=O)NCc1cc(F)cc(-c2cncc3[nH]c(-c4n[nH]c5ccc(-c6cncnc6)cc45)cc23)c1` [Compound 503, N-(3-Fluoro-5-(2-(5-(pyrimidin-5-yl)-1H-indazol-3-yl)-1H-pyrrolo[2,3-c]pyridin-4-yl)benzyl)methanesulfonamide], the EC50 in assay [1] was over 10000 nM; in assay [2] it was 2540 nM; in the assay on SW480 colon cancer cells, over 10000 nM; with IL-6 (THP-1 cells), 42 nM. Besides, the inhibition at 10 µM in assay [1] is 17.1%; in the assay with SW480 colon cancer cells (SW480, read-out: percent inhibition at 10 μM), 20.3%.

As to `Fc1ccc(-c2cncc3[nH]c(-c4n[nH]c5ccc(C6=CCNCC6)cc45)cc23)cc1` [Compound 522, 3-(4-(4-Fluorophenyl)-1H-pyrrolo[2,3-c]pyridin-2-yl)-5-(1,2,3,6-tetrahydropyridin-4-yl)-1H-indazole], the EC50 in assay [1] is 2690 nM; in assay [2], 3980 nM; in the assay with SW480 colon cancer cells, 1670 nM; in the assay on IL-6 (THP-1 cells) it was over 10000 nM. The inhibition at 10 µM in the assay on IL-6 (THP-1 cells) is 22%.

As to `CN(C)CCOc1cncc(-c2ccc3[nH]nc(-c4cc5c(-c6ccc(F)cc6)cncc5[nH]4)c3c2)c1` [Compound 531, 2-((5-(3-(4-(4-Fluorophenyl)-1H-pyrrolo[2,3-c]pyridin-2-yl)-1H-indazol-5-yl)pyridin-3-yl)oxy)-N,N-dimethylethan-1-amine], the EC50 in assay [1] was determined as 607 nM; in assay [2], 2010 nM; with SW480 colon cancer cells, 976 nM; in the assay on IL-6 (THP-1 cells), 2760 nM.

With `Fc1ccccc1-c1cncc2[nH]c(-c3n[nH]c4ccc(-c5cn[nH]c5)cc34)cc12` [Compound 539, 3-(4-(2-Fluorophenyl)-1H-pyrrolo[2,3-c]pyridin-2-yl)-5-(1H-pyrazol-4-yl)-1H-indazole], the EC50 turned out to be 164 nM in assay [1], 49 nM in assay [2], 134 nM in the assay on SW480 colon cancer cells and 37 nM with IL-6 (THP-1 cells).

Take `Fc1ccccc1-c1cncc2[nH]c(-c3n[nH]c4ccc(-c5cncc(OC6CCNCC6)c5)cc34)cc12` [Compound 544, 3-(4-(2-Fluorophenyl)-1H-pyrrolo[2,3-c]pyridin-2-yl)-5-(5-(piperidin-4-yloxy)pyridin-3-yl)-1H-indazole]: the EC50 was determined as 2760 nM in assay [1], 1830 nM in assay [2], 1350 nM with SW480 colon cancer cells and 436 nM in the assay on IL-6 (THP-1 cells).

As to `NC1CN(c2cncc(-c3ccc4[nH]nc(-c5cc6c(N7CCCCC7)cncc6[nH]5)c4c3)n2)C1` [Compound 606, 1-(6-(3-(4-(Piperidin-1-yl)-1H-pyrrolo[2,3-c]pyridin-2-yl)-1H-indazol-5-yl)pyrazin-2-yl)azetidin-3-amine], the EC50 in assay [1] is 486 nM; in assay [2], 738 nM; in the assay with SW480 colon cancer cells, 2810 nM; in the assay with IL-6 (THP-1 cells) it was 306 nM.

On to `c1ncc(-c2ccc3[nH]nc(-c4cc5c(N6CCCCC6)cncc5[nH]4)c3c2)cc1OC1CCCCC1` [Compound 607, 5-(5-(Cyclohexyloxy)pyridin-3-yl)-3-(4-(piperidin-1-yl)-1H-pyrrolo[2,3-c]pyridin-2-yl)-1H-indazole], for which the EC50 is 647 nM in assay [1], 1120 nM in assay [2], 1980 nM in the assay on SW480 colon cancer cells and 4450 nM in the assay with IL-6 (THP-1 cells).

As for `CS(=O)(=O)NCc1cc(F)cc(-c2cncc3[nH]c(-c4n[nH]c5ccc(-c6cncc(OCc7ccccc7)c6)cc45)cc23)c1` [Compound 774, N-(3-(2-(5-(5-(Benzyloxy)pyridin-3-yl)-1H-indazol-3-yl)-1H-pyrrolo[2,3-c]pyridin-4-yl)-5-fluorobenzyl)methanesulfonamide], the EC50 in assay [1] was 1490 nM; in assay [2], 2150 nM; in the assay on SW480 colon cancer cells, 2010 nM; with IL-6 (THP-1 cells) it was over 10000 nM. The inhibition at 10 µM in the assay with IL-6 (THP-1 cells) came out at 45%.
